In PubChem BioAssay (NCI):
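Briefly, cells in 96-well plates were exposed to five compound concentrations for 48 h, and endpoints were estimated by linear interpolation. TGI denotes the concentration required for complete inhibition of growth.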

How the values were obtained:
Assay in all cases: NCI anticancer screen, dose series, 48 h
[1] = system: 786-0 renal
[2] = system: A498 renal
[3] = system: A549 NSCLC
[4] = system: ACHN renal
[5] = system: BT-549 breast
[6] = system: CAKI-1 renal
[7] = system: CCRF-CEM leukemia
[8] = system: COLO 205 colon
[9] = system: DU-145 prostate
[10] = system: EKVX NSCLC
[11] = system: HCC-2998 colon
[12] = system: HCT-116 colon
[13] = system: HCT-15 colon
[14] = system: HL-60(TB) leukemia
[15] = system: HOP-62 NSCLC
[16] = system: HS 578T breast
[17] = system: HT29 colon
[18] = system: IGROV1 ovarian
[19] = system: K-562 leukemia
[20] = system: KM12 colon
[21] = system: LOX IMVI melanoma
[22] = system: M14 melanoma
[23] = system: MALME-3M melanoma
[24] = system: MCF7 breast
[25] = system: MDA-MB-231 breast
[26] = system: MDA-MB-435
[27] = system: MDA-N
[28] = system: MOLT-4 leukemia
[29] = system: NCI-H226 lung
[30] = system: NCI-H23 lung
[31] = system: NCI-H460 lung
[32] = system: NCI-H522 lung
[33] = system: OVCAR-8 ovarian
[34] = system: PC-3 prostate
[35] = system: RPMI-8226 leukemia
[36] = system: SF-268 CNS
[37] = system: SF-295 CNS
[38] = system: SF-539 CNS
[39] = system: SK-MEL-28 melanoma
[40] = system: SK-MEL-5 melanoma
[41] = system: SK-OV-3 ovarian
[42] = system: SN12C renal
[43] = system: SNB-19 CNS
[44] = system: SNB-75 CNS
[45] = system: SR leukemia
[46] = system: SW-620 colon
[47] = system: T-47D breast
[48] = system: TK-10 renal
[49] = system: UACC-257 melanoma
[50] = system: UACC-62 melanoma
[51] = system: UO-31 renal
[52] = system: OVCAR-3 ovarian
[53] = system: OVCAR-4 ovarian
[54] = system: OVCAR-5 ovarian
[55] = system: RXF 393 renal
[56] = system: SK-MEL-2 melanoma
[57] = system: U251 CNS
[58] = system: HOP-92 NSCLC
[59] = system: NCI/ADR-RES ovarian

COc1cc(OC)c2c(c1-c1ccc(C)cc1)CC(C)N(Cc1ccccc1)[C@H]2C (some centres undefined)
TGI [1]: > 100 µM | TGI [2]: > 100 µM | TGI [3]: > 100 µM | TGI [4]: > 100 µM | TGI [5]: > 100 µM | TGI [6]: > 100 µM | TGI [7]: > 100 µM | TGI [8]: > 100 µM | TGI [9]: > 100 µM | TGI [10]: > 100 µM | TGI [11]: > 100 µM | TGI [12]: > 100 µM | TGI [13]: > 100 µM | TGI [14]: 43.4 µM | TGI [15]: > 100 µM | TGI [16]: 67.3 µM | TGI [17]: 69.7 µM | TGI [18]: > 100 µM | TGI [19]: > 100 µM | TGI [20]: > 100 µM | TGI [21]: > 100 µM | TGI [22]: > 100 µM | TGI [23]: 53.2 µM | TGI [24]: > 100 µM | TGI [25]: > 100 µM | TGI [26]: > 100 µM | TGI [27]: > 100 µM | TGI [28]: > 100 µM | TGI [29]: > 100 µM | TGI [30]: > 100 µM | TGI [31]: > 100 µM | TGI [32]: 72.8 µM | TGI [33]: > 100 µM | TGI [34]: > 100 µM | TGI [35]: 52.3 µM | TGI [36]: > 100 µM | TGI [37]: > 100 µM | TGI [38]: > 100 µM | TGI [39]: > 100 µM | TGI [40]: 51.5 µM | TGI [41]: > 100 µM | TGI [42]: > 100 µM | TGI [43]: > 100 µM | TGI [44]: > 100 µM | TGI [45]: > 100 µM | TGI [46]: > 100 µM | TGI [47]: > 100 µM | TGI [48]: > 100 µM | TGI [49]: 68.5 µM | TGI [50]: > 100 µM | TGI [51]: > 100 µM

CN(CCCCCl)P(=O)(OCC1=CC(=O)c2ccccc2C1=O)OC[C@H]1O[C@@H](n2cc(F)c(=O)[nH]c2=O)C[C@@H]1O (some centres undefined)
TGI [1]: 18.3 µM | TGI [3]: 0.553 µM | TGI [4]: 14.7 µM | TGI [5]: 22.3 µM | TGI [6]: 0.627 µM | TGI [7]: 29.4 µM | TGI [8]: > 26 µM | TGI [9]: 5.53 µM | TGI [10]: 21.2 µM | TGI [12]: 13.5 µM | TGI [13]: 20.3 µM | TGI [14]: 16.5 µM | TGI [15]: 22.6 µM | TGI [16]: 0.603 µM | TGI [17]: 34.4 µM | TGI [18]: 14.3 µM | TGI [19]: 40.9 µM | TGI [20]: 22.3 µM | TGI [21]: 10.7 µM | TGI [22]: 3.52 µM | TGI [23]: 2.79 µM | TGI [24]: 8.68 µM | TGI [25]: 19.3 µM | TGI [26]: 2.21 µM | TGI [27]: 2.19 µM | TGI [28]: 32.2 µM | TGI [29]: 21 µM | TGI [30]: 5.07 µM | TGI [31]: 7.9 µM | TGI [32]: 10.9 µM | TGI [52]: 12.8 µM | TGI [53]: 14.9 µM | TGI [54]: 25.2 µM | TGI [33]: 15.7 µM | TGI [34]: 18.8 µM | TGI [35]: 21.8 µM | TGI [55]: 2.78 µM | TGI [36]: 12.6 µM | TGI [37]: 0.452 µM | TGI [56]: 23.4 µM | TGI [39]: 23.8 µM | TGI [40]: 0.647 µM | TGI [41]: > 42.8 µM | TGI [42]: 1.21 µM | TGI [43]: > 40.6 µM | TGI [44]: 0.418 µM | TGI [45]: 28.9 µM | TGI [46]: 23.1 µM | TGI [47]: 3.65 µM | TGI [48]: 17.7 µM | TGI [57]: 18.4 µM | TGI [49]: 24 µM | TGI [50]: 1.93 µM | TGI [51]: 15.9 µM

Cc1nn(C(=O)c2ccccc2O)c2c1C(c1ccc3ccccc3c1O)SC(N)=N2 (centres undefined)
TGI [1]: > 10 µM | TGI [2]: > 10 µM | TGI [3]: > 10 µM | TGI [4]: > 10 µM | TGI [5]: > 10 µM | TGI [6]: > 10 µM | TGI [7]: > 10 µM | TGI [8]: > 10 µM | TGI [10]: > 10 µM | TGI [12]: > 10 µM | TGI [13]: > 10 µM | TGI [15]: > 10 µM | TGI [58]: 4.03 µM | TGI [16]: > 10 µM | TGI [17]: > 10 µM | TGI [18]: > 10 µM | TGI [19]: > 10 µM | TGI [20]: > 10 µM | TGI [21]: > 10 µM | TGI [22]: > 10 µM | TGI [23]: > 10 µM | TGI [24]: 7.32 µM | TGI [25]: > 10 µM | TGI [26]: > 10 µM | TGI [27]: > 10 µM | TGI [28]: > 10 µM | TGI [29]: > 10 µM | TGI [30]: > 10 µM | TGI [31]: > 10 µM | TGI [52]: 9.61 µM | TGI [53]: > 10 µM | TGI [54]: > 10 µM | TGI [33]: > 10 µM | TGI [34]: > 10 µM | TGI [35]: > 10 µM | TGI [55]: > 10 µM | TGI [36]: > 10 µM | TGI [37]: > 10 µM | TGI [38]: > 10 µM | TGI [56]: > 10 µM | TGI [39]: > 10 µM | TGI [40]: 4.76 µM | TGI [41]: > 10 µM | TGI [42]: > 10 µM | TGI [43]: > 10 µM | TGI [44]: > 10 µM | TGI [45]: > 10 µM | TGI [46]: > 10 µM | TGI [47]: 8.93 µM | TGI [48]: > 10 µM | TGI [57]: > 10 µM | TGI [49]: > 10 µM | TGI [50]: 4.63 µM | TGI [51]: > 10 µM

Cc1cnc(-n2c(C)nc3cc(Cl)ccc3c2=O)s1
TGI [1]: > 100 µM | TGI [2]: 61.7 µM | TGI [3]: > 100 µM | TGI [4]: 90.9 µM | TGI [5]: > 100 µM | TGI [6]: > 100 µM | TGI [7]: > 100 µM | TGI [8]: 40.2 µM | TGI [9]: 66.4 µM | TGI [10]: 35.8 µM | TGI [11]: 96.1 µM | TGI [12]: 65.6 µM | TGI [13]: > 100 µM | TGI [14]: > 100 µM | TGI [15]: > 100 µM | TGI [58]: > 100 µM | TGI [16]: > 100 µM | TGI [17]: > 100 µM | TGI [18]: > 100 µM | TGI [19]: > 100 µM | TGI [20]: > 100 µM | TGI [21]: > 100 µM | TGI [22]: > 100 µM | TGI [23]: > 100 µM | TGI [24]: 56.5 µM | TGI [25]: > 100 µM | TGI [26]: > 100 µM | TGI [27]: 56.8 µM | TGI [28]: > 100 µM | TGI [29]: 93.8 µM | TGI [30]: 97.7 µM | TGI [31]: > 100 µM | TGI [32]: 92.1 µM | TGI [59]: 94.5 µM | TGI [52]: > 100 µM | TGI [53]: > 100 µM | TGI [54]: > 100 µM | TGI [33]: > 100 µM | TGI [34]: > 100 µM | TGI [36]: > 100 µM | TGI [37]: > 100 µM | TGI [38]: 55.3 µM | TGI [56]: > 100 µM | TGI [39]: > 100 µM | TGI [40]: 34 µM | TGI [41]: > 100 µM | TGI [42]: > 100 µM | TGI [43]: > 100 µM | TGI [44]: 70.4 µM | TGI [46]: > 100 µM | TGI [47]: 68.9 µM | TGI [48]: > 100 µM | TGI [57]: > 100 µM | TGI [49]: 99.6 µM | TGI [50]: 68.1 µM | TGI [51]: 4.13 µM

c1ccc2c(c1)SC1=C(SC(=C3SC4=C(S3)Sc3ccccc3S4)S1)S2
TGI [1]: > 100 µM | TGI [3]: > 100 µM | TGI [4]: > 100 µM | TGI [5]: > 100 µM | TGI [6]: > 100 µM | TGI [7]: > 100 µM | TGI [8]: > 100 µM | TGI [9]: > 100 µM | TGI [10]: > 100 µM | TGI [11]: > 100 µM | TGI [12]: > 100 µM | TGI [13]: > 100 µM | TGI [14]: > 100 µM | TGI [15]: > 100 µM | TGI [58]: > 100 µM | TGI [16]: > 100 µM | TGI [17]: > 100 µM | TGI [18]: > 100 µM | TGI [20]: > 100 µM | TGI [21]: > 100 µM | TGI [22]: > 100 µM | TGI [23]: > 100 µM | TGI [24]: > 100 µM | TGI [25]: > 100 µM | TGI [26]: > 100 µM | TGI [27]: > 100 µM | TGI [28]: > 100 µM | TGI [29]: > 100 µM | TGI [30]: > 100 µM | TGI [31]: > 100 µM | TGI [32]: > 100 µM | TGI [59]: > 100 µM | TGI [52]: > 100 µM | TGI [53]: > 100 µM | TGI [54]: > 100 µM | TGI [33]: > 100 µM | TGI [34]: > 100 µM | TGI [35]: > 100 µM | TGI [36]: > 100 µM | TGI [37]: > 100 µM | TGI [38]: > 100 µM | TGI [56]: > 100 µM | TGI [39]: > 100 µM | TGI [40]: > 100 µM | TGI [42]: > 100 µM | TGI [43]: > 100 µM | TGI [44]: > 100 µM | TGI [46]: > 100 µM | TGI [47]: > 100 µM | TGI [48]: > 100 µM | TGI [57]: > 100 µM | TGI [49]: > 100 µM | TGI [50]: > 100 µM | TGI [51]: > 100 µM
